Results on one substance are retold here after patent EP0133795B1 (THE McLEAN HOSPITAL CORPORATION, priority 1983, dated 1985).

The subject of one data set is general motor activity. As to the kind of experiment: General motor activity of rats (dose-response, Fig. 1). The class given is in vivo. As to conditions: n = 6 per dose. The source says: • Figures 1A and 1 B show the effects of cholesteryl-GABA on general motor activity.
The nature of data set [1]: Comparative brain/liver uptake of 14C-labeled compounds (Brain Penetration Index).
Where [2] appears, read: 50 μmol/kg s.c., 5 min, mice, mean ± S.E.M. (n = 3).

Take “(3-Cholesteryl)-gamma-Aminobutyrate [Compound 6]”: the “i.p. injected dose at which motor activity was reduced by 50%” value in the data set on general motor activity was found to be 8 µmol/kg. Besides, the “(BRAIN)” value came out at 0.17 ± 0.03 nmol/g in data set [1] (setting [2]); 0.67 nmol/g in data set [1] (50 μmol/kg s.c., 15 min, mice); 0.79 nmol/g in data set [1] (50 μmol/kg s.c., 60 min, mice); 0.60 nmol/g in data set [1] (50 μmol/kg s.c., 180 min, mice). In addition, the “(LIVER)” value is recorded as 0.69 ± .08 nmol/g in data set [1] (setting [2]); 1.19 nmol/g in data set [1] (50 μmol/kg s.c., 15 min, mice); 0.92 nmol/g in data set [1] (50 μmol/kg s.c., 60 min, mice); 1.89 nmol/g in data set [1] (50 μmol/kg s.c., 180 min, mice). Also, the BPI in data set [1] (setting [2]) was found to be 25 ± 7%; in data set [1] (50 μmol/kg s.c., 15 min, mice) it was 56%; in data set [1] (50 μmol/kg s.c., 60 min, mice), 86%; in data set [1] (50 μmol/kg s.c., 180 min, mice) it was 32%; in data set [1] (Table IX summary, 5-min Brain Penetration Index), 25. Also, the “increase of 5-min BPI over GABA” value in data set [1] (5 min after s.c. injection, relative to GABA) is 25 fold. Also, the “accumulation of radioactivity in brain persisted post-injection” value in data set [1] (s.c., mice) lay in the range of 45 to 60 min.
